Measurements reported in patent US20010044151A1, “Ligands for modulating the expression of exogenous genes via an ecdysone receptor complex” (priority 1998, published 2001).

Biological target: T1, VgEcR and RXR heterodimeric receptor (pVgRXR) with pIND/LacZ(SPI) in CHO cells (Drosophila melanogaster, UniProt P34021, E282G/G283S/G286V)
T1 construct: host or cells: CHO cells (ATCC CCL-61), transiently transfected or stably transformed with pVgRXR
T1 sequence (P34021 1-878 E282G/G283S/G286V): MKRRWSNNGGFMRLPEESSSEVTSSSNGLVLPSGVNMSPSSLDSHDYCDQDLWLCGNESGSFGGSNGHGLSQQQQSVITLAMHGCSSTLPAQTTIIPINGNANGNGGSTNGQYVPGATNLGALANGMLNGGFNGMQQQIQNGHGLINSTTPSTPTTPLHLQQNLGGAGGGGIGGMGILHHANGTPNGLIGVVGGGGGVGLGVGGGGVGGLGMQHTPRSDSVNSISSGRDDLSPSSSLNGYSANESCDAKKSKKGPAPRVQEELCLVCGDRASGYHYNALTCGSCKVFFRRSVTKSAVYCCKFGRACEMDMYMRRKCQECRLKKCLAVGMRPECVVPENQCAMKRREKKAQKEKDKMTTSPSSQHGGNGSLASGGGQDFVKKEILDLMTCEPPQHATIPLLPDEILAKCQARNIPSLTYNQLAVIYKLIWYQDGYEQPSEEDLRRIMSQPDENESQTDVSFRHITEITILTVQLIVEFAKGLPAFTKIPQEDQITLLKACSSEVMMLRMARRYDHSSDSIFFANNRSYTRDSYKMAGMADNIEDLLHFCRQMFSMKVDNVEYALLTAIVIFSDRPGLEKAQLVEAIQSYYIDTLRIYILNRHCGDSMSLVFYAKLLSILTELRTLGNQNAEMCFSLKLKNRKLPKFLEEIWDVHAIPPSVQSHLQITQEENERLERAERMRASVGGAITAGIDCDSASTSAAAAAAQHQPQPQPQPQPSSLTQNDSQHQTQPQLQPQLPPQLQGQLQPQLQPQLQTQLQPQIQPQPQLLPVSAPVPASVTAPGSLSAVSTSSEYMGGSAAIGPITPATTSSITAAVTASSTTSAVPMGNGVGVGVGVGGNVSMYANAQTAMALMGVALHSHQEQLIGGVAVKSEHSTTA
T1 sequence (P19793 1-462 partner): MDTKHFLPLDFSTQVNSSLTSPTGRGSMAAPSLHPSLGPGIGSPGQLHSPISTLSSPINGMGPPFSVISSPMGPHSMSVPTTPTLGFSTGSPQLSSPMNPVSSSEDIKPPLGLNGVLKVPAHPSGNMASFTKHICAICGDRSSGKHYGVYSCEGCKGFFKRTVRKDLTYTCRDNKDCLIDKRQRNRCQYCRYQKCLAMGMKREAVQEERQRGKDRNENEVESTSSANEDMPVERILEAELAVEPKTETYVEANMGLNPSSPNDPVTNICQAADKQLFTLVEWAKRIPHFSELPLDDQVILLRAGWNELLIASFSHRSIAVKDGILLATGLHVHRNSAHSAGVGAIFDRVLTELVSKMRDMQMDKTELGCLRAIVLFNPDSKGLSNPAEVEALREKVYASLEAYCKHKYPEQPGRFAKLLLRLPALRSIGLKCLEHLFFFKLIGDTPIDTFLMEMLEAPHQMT
Assay: β-Galactosidase gene activation in stably transformed CHO cells
Assay type: cell-based
Conditions: ligand 10 μM; for β-Galactosidase activity: average of triplicate samples, no ligand = 200; for Induction Ratio (RLU in presence and absence of the ligand): β-galactosidase
From the text: pVgRXR (Invitrogen Corp., Carlsbad, Calif.) is an […] plasmid that expresses both VgEcR and RXR to form a modified heterodimeric nuclear receptor (see No, D., et. al., (1996) Proc. Natl. Acad. Sci. USA, 93, 3346-3351). The ecdysone receptor (VgEcR) is derived from the natural Drosophila ecdysone receptor and modified to contain the VP16 transactivation domain (see Cress, W. D., and Triezenberg, S. J. (1991), Science 251, 87-90; Sadowski, I., et. al (1988) Nature 335, 563-564; Triezenberg, S. J et. al., (1988), Genes Dev 2, 718-729; Triezenberg, S. J., et. al., (1988), Genes Dev 2, 730-742). RXR as the mammalian homologue of USP (ultraspiracle), the natural partner to the Drosophila ecdysone receptor (see Yao, T. -P., et. al., (1993), Nature 366, 476-479, Yao, T. -P., et. al., (1992), Cell 71, 63-72). The P-box region of the VgEcR DNA binding domain was modified to recognize the hybrid ecdysone response element that consists of one half-site from the gluccorticoid response element (see Umesono, K., and Evans, R. M. (1989), Cell 57, 1139-1146) and one half-site from the natural ecdysone response element. This hybrid response element reduces any possible interaction with the farsenoid X receptor that may bind the natural ecdysone responsive element (EcRE). The cytomegalovirus enhancer-promoter drives expression of VgEcR, and the Rous sarcoma virus promoter drives expression of RXR. The vector pIND (Invitrogen Corp) is a 5024 bp vector based on pcDNA3.1. It contains five hybrid E/GREs recognized by the modified ecdysone receptor expressed from pVgRXR and a minimal heat shock promoter (see Yao, T. P., et. al., (1993), Nature, 366, 476-479). pIND/lacZ (Invitrogen Crop.) is a 8170 bp plasmid that contains the β-galactosidase gene as a reporter enzyme. Cotransfection of pIND/lacZ and pVgRXR results in the induction of β-galactosidase expression upon addition of ecdysone agonists such as muristerone A. The reporter plasmid pIND/luc was constructed by subcloning the firefly luciferase gene from pGL3 (Promega/E1741) as a Nhe I-BamHI fragment into pIND, also digested with Nhe I and BamHI.
CHO cells stably transformed with pVgRXR and pIND/LacZ(SPI) (Invitrogen Crop.) were maintained in Hams F-12 media containing 10% FBS, 2 mM glutamine, 300 μg/ml Zeocin (Invitrogen Crop.) and 300 μg/ml Hygromycin B. pIND(SPI), an alternative to the pIND vector, can be induced to absolute expression levels five-fold greater than that of pIND due to the presence of 3 cis-acting SPI elements. Basal expression levels are correspondingly greater.
Stock solutions (10^−2 M) were prepared for muristerone A and the non-steroidal ligands of the present invention in ethanol and acetone respectively, and stored at −20° C. Twenty-four hours after transfection, a test compound was added at a final concentration of 10 μM (10^−5 M) to each 1 ml cell culture well. Muristerone A (Sigma, M7888) at 10 μM concentration was used as a positive control. Acetone alone was added as a negative control.
Reporter gene expression was evaluated 24-48 hours after treatment of transiently transfected cells or 24 hours after treatment of the stably transformed cell line with test ligands. β-galactosidase was assayed by either staining fixed cells or assaying for enzymatic activity in cellular lysates. β-galactosidase catalyzes the hydrolysis of the β-galactoside, X-gal (5-bromo-4-chloro-3-indolyl-β-galactopyranoside) producing a blue color within the fixed cells (Invitrogen, K1465-01) that can be visualized under a microscope. Alternatively, reporter lysis buffer (RLB; Promega/E397A) was used to lyse the cells for the detection of β-galactosidase activity using a chemiluminescent substrate, Galacto-Star (Tropix/BM100S). The cells within each 12-well plate were lysed with 250 μl of RLB. Twenty μl of each extract was assayed with 100 μl of substrate. […]

Structure (SMILES) | β-Galactosidase activity | Induction Ratio (RLU in presence and absence of the ligand)
CCc1ccc(C(=O)NN(C(=O)c2cc(C)cc(C)c2)C(C)(C)C)cc1 [CE-1, N-(4-ethylbenzoyl)-N′-(3,5-dimethylbenzoyl)-N′-tert-butyl-hydrazine, reference compound] | 323 RLU | 2
CC(C)(C)N(NC(=O)c1ccccc1)C(=O)c1ccccc1 [CE-2, 1,2-dibenzoyl-1-tert-butyl-hydrazine, reference compound] | 145 RLU | 1
CC(C)CC[C@@H](O)[C@](C)(O)[C@H]1CC[C@@]2(O)C3=CC(=O)[C@]4(O)C[C@@H](O)[C@@H](O)C[C@]4(C)[C@H]3[C@H](O)C[C@]12C [CE-3, muristerone A, reference compound] | 9830 RLU | 49
CC(C)CC[C@@H](O)[C@](C)(O)[C@H]1CC[C@@]2(O)C3=CC(=O)[C@@H]4C[C@@H](O)[C@@H](O)C[C@]4(C)[C@H]3CC[C@]12C [CE-4, ponasterone A, reference compound] | 10386 RLU | 52
CCc1c(OC)cccc1C(=O)NN(C(=O)c1cccc(OC)c1)C(C)(C)C [Ligand 1] | 1123 RLU | 6
Cc1cc(C)cc(C(=O)N(NC(=O)c2ccc3c(c2C)OCCO3)C(C)(C)C)c1 [Ligand 2] | 536 RLU | 3
COc1cccc(C(=O)NN(C(=O)c2cc(C)cc(C)c2)C(C)(C)C)c1C [Ligand 3] | 681 RLU | 3
CCc1c(OC)cccc1C(=O)NN(C(=O)c1cc(F)cc(F)c1)C(C)(C)C [Ligand 4] | 1963 RLU | 10
CCc1c(OC)cccc1C(=O)NN(C(=O)c1cc(C)cc(C)c1)C(C)(C)C [Ligand 5] | 11599 RLU | 58
CCOc1cccc(C(=O)NN(C(=O)c2cc(C)cc(C)c2)C(C)(C)C)c1CC [Ligand 12] | 9830 RLU | 49
CCc1c(OC)cccc1C(=O)NN(C(=O)c1cc(Cl)cc(Cl)c1)C(C)(C)C [Ligand 13] | 6667 RLU | 33
